Source: patent US6743923B2, “Antirheumatic agent” (Shionogi & Co., Ltd., priority 1997, dated 2004)
Marks after values point to notes of the source that are not given here.

Legend:
[1] = system: NO production from activated macrophage; experiment: Inhibitory activity against NO production from mouse activated macrophage; format: cell-based; settings: LPS
Description: To BALB/c male mice was intraperitoneally administered 2 mL of a thioglycolate solution, and induced activated MΦ were collected after four days and used as NO producing cells. The cells were adjusted to 2×10^6 cells/mL and plated onto a 96-well microtiter plate at 2×10^5 cells/100 μL/well. 10 μL of 1 μg/mL of Compound Ia and LPS (lipopolysaccharide) were added thereto and incubated at 37° C. under 5% CO2 for 24 hours. 75 μL of the supernatant obtained after incubation and 75 μL of Griess reagent were incubated, and […] in the form of sodium nitrite was measured to determine the amount of NO in the supernatant.

[2] = system: osteoclast formation in mouse myeloblast; experiment: Inhibition of IL-1β-enhanced formation of osteoclast in mouse myeloblast culture; format: cell-based; settings: 2.5 ng/mL human IL-1β, six days, TRAP positive multinucleate cells
Description: (§1) It has been known that the enhanced formation of osteoclast is induced in the mouse myeloblast culture by addition of IL-1β and such effect is derived from PGE2 production through COX-2 induction. In order to determine inhibitory effect of the compounds against such effect, myeloblasts were collected from a ddY male mice, plated in a 48-well plate at 1×10^6/well and incubated. After culturing for six days in an α-MEM medium containing 10% fetal bovine serum, to which 2.5 ng/mL of human IL-1β and a predetermined concentration of the compounds were added, PGE2 level in the supernatant was measured by RIA kit. On the other hand, cells adhering on the plate were immobilized, and an activity staining of tartaric acid resistant acid phosphatase (TRAP), which is a marker enzyme for osteoclast, was conducted, whereby the number of TRAP positive cells having multinucleate (N>3) per well was counted as osteoclast.

[3] = system: serum amyloid protein (SAP); experiment: Effect on MRL/l mouse blood acute phase protein SAP; format: in vivo; settings: oral, five times a week, 13 weeks
Description: After the last administration of the compound, blood was collected under anesthetization, and the serum was used for SAP measurement. SAP has been used as a marker for rheumatism. A 96-well plate was coated with rabbit anti-mouse SAP serum, and the serum to be tested was then added to the plate and incubated for 2 hours. After addition of sheep anti-mouse SAP serum, a rabbit anti-sheep IgG antibody labeled with alkaline phosphatase and then a substrate were added to the plate, and OD of developed color was measured at 405 nm.

[4] = system: PGE2 production; experiment: Inhibition of PGE2 production due to IL-1β stimulation in mouse myeloblast culture; format: cell-based; settings: 2.5 ng/mL human IL-1β, six days, RIA
Description: as §1

[5] = system: articular destruction in adjuvant arthritis; experiment: Rat adjuvant arthritis: inhibitory effect against articular destruction (X-ray score); format: in vivo
Description: (§2) A rat adjuvant arthritis model, which is commonly used in an in vivo evaluation for antirheumatic agents, was employed in this evaluation. To prepare an arthritis model, heat-killed cells of Mycobacterium butyricum (Difco) were suspended in mineral oil, and a rat was intradermally injected with 0.05 mL of 1% solution of the suspension at the plantar of left hind leg.
The right and left hind legs of the arthritis rats used in the above experiments were radiographed using a soft X-ray radiation and evaluated by the X-ray observation score for the bone destruction in the arthrosis. The effects were numerically evaluated by grading the articular destruction from 0 to 3 (0: normal; 1: low degree of articular and bone destruction; 2: medium degree of articular and bone destruction, and neogenesis of cartilage; 3: strong articular and bone destruction), and the efficacy in the drug-administered group was determined in comparison with the vehicle-administered group according to Wilcoxon U-test (*p<0.05, **p<0.01)(FIG. 2).

[6] = system: adjuvant articular swelling; experiment: Rat adjuvant arthritis: inhibitory effect against articular swelling; format: in vivo
Description: as §2
Using the above arthritis model, Compound Ia was administered to the animal for 22 days after injection of the adjuvant, and the articular swelling was measured from time to time to evaluate the prophylactic inhibitory effect. On the other hand, the curative effect was evaluated by administering Compound Ia to animals from Day 15 to Day 25 after injection of the adjuvant and measuring the articular swelling in injected and non-injected legs. Inhibitory and curative effects were expressed by effective dose for 30% inhibition (ED30).

[7] = system: blood NOx level; experiment: Suppressive effect on blood NOx level in adjuvant arthritis rat; format: in vivo; settings: oral, 28 days
Description: An adjuvant arthritis model was prepared in the same manner as above, and the compounds were orally administered to the animals for 28 days beginning on the day before the adjuvant injection. Blood was then collected under anesthetization and the serum was ultracentrifuged. The supernatant was ultrafiltrated to prepare a sample for NOx (nitrite+nitrate) measurement.

[8] = system: IL-6 production from neutrophil; experiment: Inhibitory activity against IL-6 production, LPS-stimulated neutrophil fraction from human peripheral blood; format: cell-based; settings: 10 μg/mL LPS, 16-18 hours, RIA
[9] = system: transcription factor NFκB; experiment: Suppressive activity on transcription factor NFκB (HIV-1 LTR luciferase reporter in Jurkat cell); format: cell-based, human; settings: for luciferase activity (%) mean ± standard error: TPA-PHA = 100
Description: A recombinant plasmid (pGV-B.HIV-1LTR), in which HIV-1 (AIDS) virus promoter LTR containing two NFκB binding sites is ligated to upstream of firefly luciferase gene, was constructed, and the DNA was purified. This plasmid DNA was introduced by electroporation into a Jurkat cell, a human T cell leukemic cell line, and the cell was cultured for 48 hours. Subsequently, phytohemagglutinin (PHA, 0.5%), phorbol ester (TPA (12-O-tetradecanoylphorbol 13-acetate), 25 ng/mL), and a predetermined concentration of the test compound were added thereto to allow to react for 2 hours, and the cells were harvested, and the luciferase activity in the cellular extract was measured.

[10] = system: IL-6 production from synovial membrane cells of RA patients; experiment: Inhibitory activity against IL-6 production, synovial membrane cells from RA patient; format: cell-based, human; settings: synovial membrane cells from RA patient

## CCN1CC/C(=C\c2cc(C(C)(C)C)c(O)c(C(C)(C)C)c2)S1(=O)=O [Compound Ia, (E)-2-Ethyl-5-(3,5-di-tert-butyl-4-hydroxy)benzylidene-1,2-isothiazolidine-1,1-dioxide]
[1]; 0.8 μM compound, 24 hours
  NO^2- Production: 27.3 ± 0.94 μM/2 × 10^5 cells
[1]; 3.1 μM compound, 24 hours
  NO^2- Production: 12.3 ± 2.50 μM/2 × 10^5 cells
[1]; 12.5 μM compound, 24 hours
  NO^2- Production: <1.0*** μM/2 × 10^5 cells
[1]; 50 μM compound, 24 hours
  NO^2- Production: <1.0*** μM/2 × 10^5 cells
[1]; 100 μM compound, 24 hours
  NO^2- Production: <1.0*** μM/2 × 10^5 cells
[1]; mouse activated macrophage
  concentration at which NO production was inhibited in a dose-dependent manner: 0.8 to 12.5 µM
[1]; mouse activated macrophage, 24 hours
  IC50: 3000 nM
[2]
  IC50: 1.3 nM
[3]; 50 mg/kg/day
  effect on blood SAP: significant results
[3]; 2-50 mg/kg/day
  effect on blood SAP: repressive tendency in a dose-dependent manner
[4]
  IC50: 0.21 nM
[5]; adjuvant-injected leg
  dose with dose-dependent and significant inhibitory effect against the articular destruction: ≥ 3 mg/kg/day
[5]; non-injected leg
  dose with dose-dependent and significant inhibitory effect against the articular destruction: ≥ 1 mg/kg/day
[6]; curative
  dose with dose-dependent and significant inhibitory effect against articular swelling, curative effect: ≥ 3 mg/kg/day
[6]; prophylactic, adjuvant-injected leg
  dose with dose-dependent and significant inhibitory effect against articular swelling: ≥ 0.3 mg/kg/day
[6]; rat, administered for 22 days after injection of the adjuvant
  ED30 (95% confidence limits), prophylactic effect against adjuvant articular swelling: 0.88 (0.52-1.31) mg/kg/day
[6]; rat, administered from Day 15 to Day 25 after injection of the adjuvant
  ED30 (95% confidence limits), curative effect against adjuvant articular swelling: 2.6 (1.3-6.4) mg/kg/day
[7]
  dose with dose-dependent and significant inhibitory effect on the increase of blood NOx level: ≥ 3 mg/kg/day
[8]
  IC50: 20000 nM
[9]; Experiment-1, 5 μM
  luciferase activity (%) mean ± standard error: 82.2 ± 8.3%
[9]; Experiment-1, 10 μM
  luciferase activity (%) mean ± standard error: 79.6 ± 5.4%
[9]; Experiment-1, 20 μM
  luciferase activity (%) mean ± standard error: 54.6 ± 4.3%
[9]; Experiment-1, 50 μM
  luciferase activity (%) mean ± standard error: 53.5 ± 5.9%
[9]; Experiment-2, 20 μM
  luciferase activity (%) mean ± standard error: 86.4 ± 1.9%
[9]; Experiment-2, 50 μM
  luciferase activity (%) mean ± standard error: 75.1%
[9]; Experiment-2, 100 μM
  luciferase activity (%) mean ± standard error: 61.1 ± 3.9%
[9]; Jurkat cell, TPA-PHA
  concentration at which luciferase activity was inhibited: 5 to 50 µM
[10]
  IC50: 10000 nM
